According to US8853219B2, “Compounds and compositions for cognition-enhancement, methods of making, and methods of treating” (NeuroSolis, Inc., priority 2010, dated 2014):
Numbering of substitutions follows the chain as printed. Like-named read-outs stand apart in the source and are kept apart here.

How the values were obtained:
[1] = molecular target: T1, human muscarinic M1 receptors (Homo sapiens, UniProt P11229); test: Stimulation of inositol phosphate production in A9L cells, human M1 (IPOne TR-FRET); assay type: cell-based; settings: for huM1/A9L Smax: percentage of maximal stimulation by carbachol
T1 construct: host or cells: A9L cells
T1 sequence (P11229 1-460): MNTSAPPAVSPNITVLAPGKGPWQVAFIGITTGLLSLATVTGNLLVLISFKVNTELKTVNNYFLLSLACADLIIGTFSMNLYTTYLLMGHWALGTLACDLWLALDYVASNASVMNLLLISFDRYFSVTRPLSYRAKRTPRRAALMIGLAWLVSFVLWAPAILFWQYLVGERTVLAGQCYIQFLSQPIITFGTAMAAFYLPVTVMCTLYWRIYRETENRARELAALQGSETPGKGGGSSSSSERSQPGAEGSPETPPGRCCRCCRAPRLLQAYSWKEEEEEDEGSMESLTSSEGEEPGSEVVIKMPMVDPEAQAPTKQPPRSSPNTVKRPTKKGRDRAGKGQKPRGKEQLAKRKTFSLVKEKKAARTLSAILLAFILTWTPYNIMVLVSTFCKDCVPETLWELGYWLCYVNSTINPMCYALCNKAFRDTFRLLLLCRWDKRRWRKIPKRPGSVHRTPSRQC
Experimental: (§1) Muscarinic M1 and M3 agonist activity was evaluated by measuring the stimulation of inositol phosphate (IP) production in the presence of lithium chloride from A9L cells transfected with expression plasmids containing human muscarinic M1 and M3 receptors, respectively. The cell lines were a gift from Professor W Messer, and the methods were as described in Tejada F R et al. J. Med. Chem. 2006; 49: 7518-31 except that the assay was scaled down to run in 384 well plates, and IP was measured in the cell lysates using the non-isotopic IPOne TR-FRET assay (CIS-BIO, Inc).
(§2) Cells were grown to 90% confluence in 384 well hi-base plates (Greiner Bio-One), compounds were added at suitable concentrations in growth medium containing 10 mM LiCL, buffered with an extra 10 mM HEPES (pH7.4), and incubated for 60 minutes at 37° C. Cells were lysed and assayed for IP following the manufacturer's instructions.
(§3) The value for a full agonist is 100%, while partial agonists give values below 100%.

[2] = molecular target: T2, human muscarinic M3 receptors (Homo sapiens, UniProt P20309); test: Stimulation of inositol phosphate production in A9L cells, human M3 (IPOne TR-FRET); assay type: cell-based; settings: for huM3/A9L Smax: percentage of maximal stimulation by carbachol
T2 construct: host or cells: A9L cells
Experimental: as §1, §2, §3

[3] = system: pooled male human liver microsomes; test: Metabolism by human liver microsomes; assay type: in vitro ADME; settings: for Metabolism in human liver microsomes: 6 hours incubation; for Rate of metabolism, S- versus R-enantiomer: human liver microsomes, as also in rat liver microsomes and FMO Supersomes
Experimental: Compounds were incubated with pooled male human liver microsomes (BD Biosciences, #452172) and an NADP-regenerating system in a phosphate buffer (pH 7.4) for a total of 6 hours. Aliquots were removed every 2 hours, and 1% formic acid was added to halt the reaction. Samples were centrifuged, filtered through 0.2 micron spinfilter and the amount of each compound in the supernatants was quantitated using LC/MS/MS.

[4] = molecular target: T3, rat M1 receptors (Rattus norvegicus, UniProt P08482); test: PI turnover (inositol phosphate production) in M1-CHO cells; assay type: cell-based; settings: M1 versus M3 cell lines
T3 construct: host or cells: Chinese Hamster Ovary cells (M1-CHO)
T3 sequence (P08482 1-460): T1 sequence (P11229 1-460) with A5V, T254S, P309S, R320K, A337G, I413V
Experimental: The medium was changed to 70 μL/well of inositol-free DMEM containing 2 mM glutamine, 10% FBS and 10 μCi/ml of [3H]-inositol (PE:cat #NET114A250UC), incubated overnight as above, then 100 μL of a solution of the test compound in HBSS containing 10 mM LiCl and 20 mM HEPES, pH 7.4 was added, incubation was continued for 60 min under the above conditions, and the test was stopped by removing the test compound and replacing with 100 μL of 50 mM formic acid in water at 4° C.

[5] = Blood and brain concentrations (rats) after oral gavage; assay type: in vivo, rat; settings: for Brain Cmax (10 mg/kg po) 1 hr MCD-386 = 1.00: rat brain, relative to MCD-386; for Penetration into the brain: rats after oral dosing
Experimental: Long-Evans Hooded rats (Charles River: male, 250-350 g) were dosed with solutions of test compounds in PBS by oral gavage. At the desired time after dosing, the animals were anesthetized with isoflurane, and then euthanized by cervical dislocation. Blood was obtained by cardiac puncture, transferred to a 1.5 mL microcentrifuge tube containing 15U Heparin, and the plasma recovered after centrifugation. Brains were dissected, weighed, immediately chilled to 4° C., and homogenized using a PowerGen 125 homogenizer in five volumes of ice-cold 2% formic acid. Proteins were precipitated from plasma and brain homogenate with two and five volumes respectively of ice-cold 2% formic acid and clarified by centrifugation. The supernatant was ultra-filtered by centrifugation through a 3K MWCO spin column (Pall Life Sciences), following the manufacturer's instructions. The concentration of compound in the ultra-filtrate was subjected to reverse-phase liquid chromatography using a 150×2.1 mm Agilent C8 reverse-phase column on a Shimadzu Prominence LC, eluting the compounds with a gradient of 2% to 50% of acetonitrile+0.1% formic acid for compound MI-50,382, or an isocratic flow of 2% acetonitrile+0.1% formic acid for the rest of the compounds listed. The concentration of the compound in the column effluent was measured using an Applied Biosystems API-3200 triple quadrupole mass spectrometer equipped with an electrospray sample injection system. The counts of the characteristic parent and product ions of each test compound were converted to concentration units by comparison with a standard calibration curve.

T2 sequence (P20309 whole entry): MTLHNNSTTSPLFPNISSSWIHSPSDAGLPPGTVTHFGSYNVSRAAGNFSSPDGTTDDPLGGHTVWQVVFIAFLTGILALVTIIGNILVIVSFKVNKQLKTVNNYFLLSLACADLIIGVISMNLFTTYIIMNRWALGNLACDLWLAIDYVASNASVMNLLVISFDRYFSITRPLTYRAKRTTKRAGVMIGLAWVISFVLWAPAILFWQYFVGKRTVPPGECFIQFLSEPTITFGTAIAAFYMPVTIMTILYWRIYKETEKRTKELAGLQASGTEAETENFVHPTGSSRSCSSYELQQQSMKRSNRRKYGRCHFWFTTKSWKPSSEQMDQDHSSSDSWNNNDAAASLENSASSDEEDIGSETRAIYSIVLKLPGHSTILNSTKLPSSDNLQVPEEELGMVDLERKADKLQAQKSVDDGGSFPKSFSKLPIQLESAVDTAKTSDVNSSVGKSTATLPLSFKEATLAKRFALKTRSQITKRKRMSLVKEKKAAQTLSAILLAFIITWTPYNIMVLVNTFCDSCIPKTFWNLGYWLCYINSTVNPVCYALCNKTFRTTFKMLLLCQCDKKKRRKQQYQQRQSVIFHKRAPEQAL

| SMILES | huM1/A9L Smax [1] [%] | huM3/A9L Smax [2] [%] | huM1/A9L ED50 relative to CCh [1] | huM3/A9L ED50 relative to CCh [2] | further results |
| --- | --- | --- | --- | --- | --- |
| Cc1noc([C@H]2CCCN[C@@H]2C)n1 [Compound 23] | 23 | 19 |  |  |  |
| Cc1noc([C@@H]2CCCNC2)n1 [Compound 3b, R-(−)-3-methyl-5-(piperidin-3-yl)-1,2,4-oxadiazole] |  |  | +/− (key: ++: potency > 10x CCh; +: potency 2-10x CCh; +/−: potency 0.5-2x CCh; −: potency < 0.5-0.1x CCh; −−: potency < 0.1x CCh; inactive: potency too low to determine) | − (key: ++: potency > 10x CCh; +: potency 2-10x CCh; +/−: potency 0.5-2x CCh; −: potency < 0.5-0.1x CCh; −−: potency < 0.1x CCh; inactive: potency too low to determine) | Metabolism in human liver microsomes [3]: metabolized significantly less in human liver microsomes than in rat liver microsomes |
| [2H]C([2H])([2H])c1noc([C@@H]2CCCNC2)n1 [Compound 7b, R-(−)-3-D3-methyl-5-(piperidin-3-yl)-1,2,4-oxadiazole] |  |  | + (key: ++: potency > 10x CCh; +: potency 2-10x CCh; +/−: potency 0.5-2x CCh; −: potency < 0.5-0.1x CCh; −−: potency < 0.1x CCh; inactive: potency too low to determine) | +/− (key: ++: potency > 10x CCh; +: potency 2-10x CCh; +/−: potency 0.5-2x CCh; −: potency < 0.5-0.1x CCh; −−: potency < 0.1x CCh; inactive: potency too low to determine) | Metabolism in human liver microsomes [3]: metabolized significantly less in human liver microsomes than in rat liver microsomes |
| Cl.[2H]C([2H])(C)c1noc(C2CN=CNC2)n1 (stereo not drawn) [compound 6, 3-(1,1-d2-ethyl)-5-(1,4,5,6-tetrahydropyrimidin-5-yl)-1,2,4-oxadiazole hydrochloride] |  |  |  |  | Functional selectivity for M1 subtype by PI turnover [4]: M1-subtype functionally selective muscarinic agonists; Brain Cmax (10 mg/kg po) 1 hr MCD-386 = 1.00 [5]: 0.82; Penetration into the brain [5]: penetrated into the brain |
| Cc1noc([C@H]2CCCN[C@@H]2C)n1 [Compound 20] | 9 |  |  |  |  |
| c1nsc(C2CCCNC2)n1 (stereo not drawn) [Compound 12b, 5-(piperidin-3-yl)-1,2,4-thiadiazole] |  |  | − (key: ++: potency > 10x CCh; +: potency 2-10x CCh; +/−: potency 0.5-2x CCh; −: potency < 0.5-0.1x CCh; −−: potency < 0.1x CCh; inactive: potency too low to determine) | −− (key: ++: potency > 10x CCh; +: potency 2-10x CCh; +/−: potency 0.5-2x CCh; −: potency < 0.5-0.1x CCh; −−: potency < 0.1x CCh; inactive: potency too low to determine) |  |
| [2H]C([2H])([2H])c1noc([C@H]2CCCNC2)n1 [Compound 7a, S-(+)-3-D3-methyl-5-(piperidin-3-yl)-1,2,4-oxadiazole] |  |  | +/− (key: ++: potency > 10x CCh; +: potency 2-10x CCh; +/−: potency 0.5-2x CCh; −: potency < 0.5-0.1x CCh; −−: potency < 0.1x CCh; inactive: potency too low to determine) | −− (key: ++: potency > 10x CCh; +: potency 2-10x CCh; +/−: potency 0.5-2x CCh; −: potency < 0.5-0.1x CCh; −−: potency < 0.1x CCh; inactive: potency too low to determine) | Metabolism in human liver microsomes [3]: metabolized significantly less in human liver microsomes than in rat liver microsomes; Rate of metabolism, S- versus R-enantiomer [3]: metabolized faster than the R-enantiomers |
| Cc1noc([C@H]2CCCN[C@@H]2C)n1 [Compound 19] | 15 | 34 |  |  |  |
| Cc1noc(C2CCNC2)n1 (stereo not drawn) [Compound 31, 3-methyl-5-(pyrrolidin-3-yl)-1,2,4-oxadiazole] |  |  |  |  | huM3/A9L ED50 relative to CCh ([2]; potency class relative to carbachol): − (potency < 0.5-0.1x CCh) |
| Cl.[2H]C([2H])([2H])C([2H])([2H])c1noc(C2CN=CNC2)n1 (stereo not drawn) [compound 2, 3-(1,1,2,2,2-d5-ethyl)-5-(1,4,5,6-tetrahydropyrimidin-5-yl)-1,2,4-oxadiazole hydrochloride] |  |  |  |  | Functional selectivity for M1 subtype by PI turnover [4]: M1-subtype functionally selective muscarinic agonists; Brain Cmax (10 mg/kg po) 1 hr MCD-386 = 1.00 [5]: 0.61; Penetration into the brain [5]: penetrated into the brain |
| Cc1noc([C@H]2CCCN[C@@H]2C)n1 [Compound 22] | 7 | 15 |  |  |  |
| Cc1noc([C@H]2CCCN[C@@H]2C)n1 [Compound 24] | 41 | 32 | −− (key: ++: potency > 10x CCh; +: potency 2-10x CCh; +/−: potency 0.5-2x CCh; −: potency < 0.5-0.1x CCh; −−: potency < 0.1x CCh; inactive: potency too low to determine) |  |  |
| Nc1noc(C2CCCNC2)n1 (stereo not drawn) [Compound 27, 3-Amino-5-(piperidin-3-yl)-1,2,4-oxadiazole] |  |  | + (key: ++: potency > 10x CCh; +: potency 2-10x CCh; +/−: potency 0.5-2x CCh; −: potency < 0.5-0.1x CCh; −−: potency < 0.1x CCh; inactive: potency too low to determine) | +/− (key: ++: potency > 10x CCh; +: potency 2-10x CCh; +/−: potency 0.5-2x CCh; −: potency < 0.5-0.1x CCh; −−: potency < 0.1x CCh; inactive: potency too low to determine) |  |
| Cc1nsc(C2CCCNC2)n1.Cl (stereo not drawn) [Compound 12a, 3-methyl-5-(piperidin-3-yl)-1,2,4-thiadiazole hydrochloride] |  |  | + (key: ++: potency > 10x CCh; +: potency 2-10x CCh; +/−: potency 0.5-2x CCh; −: potency < 0.5-0.1x CCh; −−: potency < 0.1x CCh; inactive: potency too low to determine) | + (key: ++: potency > 10x CCh; +: potency 2-10x CCh; +/−: potency 0.5-2x CCh; −: potency < 0.5-0.1x CCh; −−: potency < 0.1x CCh; inactive: potency too low to determine) |  |
| Cc1noc([C@H]2CCCNC2)n1 [Compound 3a, S-(+)-3-methyl-5-(piperidin-3-yl)-1,2,4-oxadiazole] |  |  | + (key: ++: potency > 10x CCh; +: potency 2-10x CCh; +/−: potency 0.5-2x CCh; −: potency < 0.5-0.1x CCh; −−: potency < 0.1x CCh; inactive: potency too low to determine) | +/− (key: ++: potency > 10x CCh; +: potency 2-10x CCh; +/−: potency 0.5-2x CCh; −: potency < 0.5-0.1x CCh; −−: potency < 0.1x CCh; inactive: potency too low to determine) | Metabolism in human liver microsomes [3]: metabolized significantly less in human liver microsomes than in rat liver microsomes; Rate of metabolism, S- versus R-enantiomer [3]: metabolized faster than the R-enantiomers |
| Cc1noc([C@H]2CCCN[C@@H]2C)n1 [Compound 21] | 18 | 14 |  |  |  |
